Experimental data as given in patent publication US20140134648A1, “METHODS OF DETERMINING THE HEALTH STATUS OF AN INDIVIDUAL” (NODALITY, INC., priority 2008, published 2014).
Entries after “also recorded” stand apart in the source; their conditions may differ.

System: CD34+ myeloblast cells in healthy BMMCs
Test: Effects of therapeutics on healthy bone marrow mononuclear cells: CD45 versus CD34 expression by flow cytometry
Assay type: cell-based
Details: live healthy BMMCs, 1:3 dilutions, 100 μM to 0.0017 μM, after 24 hours

SMILES	loss / viability of the rare population of CD34+ myeloblast cells
O=C(CCCCCCC(=O)Nc1ccccc1)NO [Vorinostat]	selective loss of rare population of CD34+ myeloblast cells in a dose-dependent fashion; also recorded: concentration dependent loss of CD34+ myeloblast cells
Nc1ncn([C@@H]2O[C@H](CO)[C@@H](O)[C@H]2O)c(=O)n1 [5-Azacytidine]	dose-dependent loss of a rare population of CD34+ myeloblast cells; also recorded: concentration dependent loss of CD34+ myeloblast cells
